Measured values taken from the supplement of paper PMC10307832.

What was measured:
Assay in all cases: relative viability (nuclei count vs DMSO), 5 days (fraction); higher = more cells survive
[1] = compound: C1COCCN1CC2=CC(=O)C(=CO2)OCCCCCSC3=C4C=CC(=CC4=NC=C3)C(F)(F)F [EHT 1864] + C[C@]1(O)C[C@@H](c2nc(-c3ccc4ccc(-c5ccccc5)nc4c3)c3c(N)nccn32)C1 [Linsitinib] (partner 1 µM)
Procedure, shortened: (§1)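 One day after seeding in 1536-well plates, lung cancer cell lines were dosed by pin tool. Dosing was either single-drug or a fixed anchor-drug dose plus five library-drug doses (not always all listed) in √10 steps. After 5 days, nuclei were stained in one fix-and-stain step and counted on 4× images, and relative viability is the nuclei count of treated wells over that of vehicle wells, given as the median of duplicate plates.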

[2] = compound: C1COCCN1CC2=CC(=O)C(=CO2)OCCCCCSC3=C4C=CC(=CC4=NC=C3)C(F)(F)F [EHT 1864] + Nc1nc2[nH]cc(CCc3ccc(C(=O)N[C@@H](CCC(=O)O)C(=O)O)cc3)c2c(=O)[nH]1 [Pemetrexed] (partner 0.2 µM)
Procedure, shortened: as §1

[3] = compound: C1COCCN1CC2=CC(=O)C(=CO2)OCCCCCSC3=C4C=CC(=CC4=NC=C3)C(F)(F)F [EHT 1864] + O=C(CCCCCCC(=O)Nc1ccccc1)NO [Vorinostat] (partner 1 µM)
Procedure, shortened: as §1

[4] = compound: C1COCCN1CC2=CC(=O)C(=CO2)OCCCCCSC3=C4C=CC(=CC4=NC=C3)C(F)(F)F [EHT 1864] + O=C(c1cc(Cc2n[nH]c(=O)c3ccccc23)ccc1F)N1CCN(C(=O)C2CC2)CC1 [Olaparib] (partner 8 µM)
Procedure, shortened: as §1

Row | Cell Line | relative viability ([1]; first compound 0.04 µM) | relative viability ([1]; first compound 0.1265 µM) | relative viability ([1]; first compound 0.4 µM) | relative viability ([1]; first compound 1.265 µM) | relative viability ([1]; first compound 4 µM) | relative viability ([2]; first compound 0.04 µM) | relative viability ([2]; first compound 0.1265 µM) | relative viability ([2]; first compound 0.4 µM) | relative viability ([2]; first compound 1.265 µM) | relative viability ([2]; first compound 4 µM) | relative viability ([3]; first compound 0.04 µM) | relative viability ([3]; first compound 0.1265 µM) | relative viability ([3]; first compound 0.4 µM) | relative viability ([3]; first compound 1.265 µM) | relative viability ([3]; first compound 4 µM) | relative viability ([4]; first compound 0.04 µM) | relative viability ([4]; first compound 0.1265 µM) | relative viability ([4]; first compound 0.4 µM) | relative viability ([4]; first compound 1.265 µM) | relative viability ([4]; first compound 4 µM)
1 | 201T | 1.08 | 1.05 | 1.08 | 0.925 | 1.03 | 0.346 | 0.326 | 0.351 | 0.266 | 0.291 | 0.901 | 0.876 | 1.01 | 0.923 | 0.811 | 0.821 | 0.794 | 0.856 | 0.73 | 0.81
2 | A-427 | 1.09 | 1.18 | 1.15 | 1.11 | 1.13 | 0.979 | 1.01 | 0.952 | 0.931 | 0.935 | 0.928 | 0.819 | 0.885 | 0.879 | 0.801 | 0.768 | 0.734 | 0.778 | 0.678 | 0.713
3 | ABC-1 | 0.769 | 0.797 | 0.73 | 0.718 | 0.555 |  |  |  |  |  | 1.22 | 0.978 | 0.928 | 1.07 | 1.12 | 1.24 | 0.695 | 0.861 | 0.629 | 0.762
4 | BEN | 0.862 | 0.801 | 0.879 | 0.851 | 0.985 | 0.763 | 0.678 | 0.908 | 0.697 | 0.715 | 0.528 | 0.579 | 0.636 | 0.648 | 0.57 | 1.06 | 0.982 | 0.836 | 0.914 | 1
5 | CAL-12T | 0.824 | 0.667 | 0.79 | 0.824 | 0.838 | 1.08 | 1.12 | 1.09 | 1.18 | 0.964 | 0.671 | 0.553 | 0.644 | 0.775 | 0.812 | 0.702 | 0.642 | 0.721 | 0.706 | 0.611
6 | COR-L23 | 0.94 | 0.921 | 0.942 | 0.949 | 0.873 | 0.197 | 0.193 | 0.196 | 0.194 | 0.214 | 0.476 | 0.333 | 0.476 | 0.435 | 0.433 | 0.35 | 0.359 | 0.314 | 0.392 | 0.213
7 | COR-L 105 | 0.889 | 0.963 | 0.906 | 1.12 | 0.848 | 1.03 | 1.06 | 0.966 | 1.01 | 0.984 | 0.99 | 0.699 | 0.949 | 0.847 | 0.778 | 0.792 | 0.692 | 0.777 | 0.648 | 0.624
8 | Calu-6 | 0.99 | 0.737 | 0.96 | 0.875 | 0.893 |  |  |  |  |  |  |  |  |  |  | 0.615 | 0.563 | 0.594 | 0.507 | 0.502
9 | ChaGo-K-1 |  |  |  |  |  | 0.261 | 0.27 | 0.25 | 0.264 | 0.256 | 0.785 | 0.76 | 0.72 | 0.811 | 0.76 | 0.403 | 0.442 | 0.443 | 0.406 | 0.349
